Data published in publication PMC4627794, “Non-Selective Cannabinoid Receptor Antagonists, Hinokiresinols Reduce Infiltration of Microglia/Macrophages into Ischemic Brain Lesions in Rat via Modulating 2-Arachidonolyglycerol-Induced Migration and Mitochondrial Activity” (PLoS ONE, 2015).

What was measured:
hCB2R (human CB2R) [1] = molecular target: T1, hCB2R (human CB2R) (Homo sapiens, UniProt P34972); test: competition radioligand binding, [3H]CP-55, […]
T1 construct: gene CNR2; full-length receptor stably expressed in CHO cells

[2] = molecular target: T2, CB1R (U2 OS cells, reporter gene assay) (Homo sapiens, UniProt P21554); test: SRE-luciferase reporter gene assay, agonism; type: cell-based; conditions: agonist mode
T2 construct: gene CNR1; receptor stably expressed in U2 OS cells

hCB2R (human CB2R) [3] = molecular target: T1, hCB2R (human CB2R); test: forskolin-stimulated cAMP accumulation, antagonism; type: cell-based
Excerpt: forskolin-stimulated cAMP accumulation, antagonism on hCB2R (human CB2R) | antagonism for CB1R and CB2R with IC50 values in micromolar ranges

[4] = molecular target: T2, CB1R (U2 OS cells, reporter gene assay); test: SRE-luciferase reporter gene assay, antagonism; type: cell-based
Excerpt: SRE-luciferase reporter gene assay, antagonism on CB1R (U2 OS cells, reporter gene assay) | antagonism for CB1R and CB2R with IC50 values in micromolar ranges

T2 sequence (P21554 whole entry): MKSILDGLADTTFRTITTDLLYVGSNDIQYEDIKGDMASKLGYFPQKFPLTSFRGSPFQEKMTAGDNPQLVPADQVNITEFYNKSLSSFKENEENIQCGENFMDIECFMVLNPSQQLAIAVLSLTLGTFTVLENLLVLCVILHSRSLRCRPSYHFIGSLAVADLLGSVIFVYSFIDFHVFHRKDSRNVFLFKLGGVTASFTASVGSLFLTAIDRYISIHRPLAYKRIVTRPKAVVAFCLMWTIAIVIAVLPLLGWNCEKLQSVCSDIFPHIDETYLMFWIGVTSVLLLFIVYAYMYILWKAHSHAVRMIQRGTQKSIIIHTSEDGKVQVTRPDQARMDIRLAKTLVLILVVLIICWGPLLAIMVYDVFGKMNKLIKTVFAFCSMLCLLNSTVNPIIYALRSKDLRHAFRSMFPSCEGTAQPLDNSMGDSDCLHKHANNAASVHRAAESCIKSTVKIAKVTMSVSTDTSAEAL
T1 sequence (P34972 whole entry): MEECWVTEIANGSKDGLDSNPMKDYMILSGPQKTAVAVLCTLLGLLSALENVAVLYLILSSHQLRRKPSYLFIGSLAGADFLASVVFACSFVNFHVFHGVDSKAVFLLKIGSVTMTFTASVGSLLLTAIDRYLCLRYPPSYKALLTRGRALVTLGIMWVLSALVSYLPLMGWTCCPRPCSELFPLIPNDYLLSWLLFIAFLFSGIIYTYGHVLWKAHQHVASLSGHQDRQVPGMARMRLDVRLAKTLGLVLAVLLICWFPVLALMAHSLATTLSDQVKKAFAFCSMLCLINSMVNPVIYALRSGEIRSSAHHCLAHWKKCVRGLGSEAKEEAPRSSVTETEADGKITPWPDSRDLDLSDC

Compound	Ki (hCB2R (human CB2R) [1]) [µM]	EC50 [2] [µM]	IC50 (hCB2R (human CB2R) [3]) [µM]	IC50 [4] [µM]
CN1CCCCC1Cn1cc(C(=O)c2cc([N+](=O)[O-])ccc2I)c2ccccc21 (centres unmarked) [AM-1241, reference compound]	0.0066	–	–	–
CCCCCCC(C)(C)c1cc(O)c2c(c1)OC(C)(C)[C@@H]1CC=C(CO)C[C@@H]21 [Hu-210]	–	0.000199	–	–
C=C[C@@H](/C=C\c1ccc(O)cc1)c1ccc(O)cc1 [cis-hinokiresinol]	12.2	–	72.5	11.2
C=C[C@@H](/C=C/c1ccc(O)cc1)c1ccc(O)cc1 [trans-hinokiresinol]	9.5	–	20.5	10.2
